# In US20240245607A1, “Microencapsulation of Active Agents” (Temple University-Of The Commonwealth System of Higher …, priority 2016, published 2024):
# Where a name gives a salt, the structure may show the parent alone. Read-outs that look alike come from different tables or passages of the source.
# Key:
# [1] = IR spectra of encapsulated compounds in stearic acid microspheres (degradation); type: physicochemical
# Experimental: Bitter taste stimuli are prepared in a similar manner, except at a pH of 8.0. Along with stearic acid, SOA is melted at ˜100° C., quinine HCl·7H2O is melted at ˜165° C., quinine HCl·2H2O is melted at 116° C., or n-propylthiouracil (PROP) is melted at ˜150° C. before addition to a rapidly stirred buffer solution. […] The quinine content of microspheres is measured by fluorescence emission or by absorbance in the ultra-violet region. SOA content of microspheres is measured by the anthrone reaction, and PROP and PTC content of microspheres is measured by UV absorption at 275 nm.
# After drying, loaded microspheres are dissolved in a solvent such as acetonitrile or acetonitrile/HEPES, and the encapsulated compound is assayed by absorption spectroscopy, fluorescence emission, or infra-red spectroscopy. The melting point is then measured in order to identify the melting point range of the microspheres. If needed, these lipid microspheres could be embedded within pullulan-based films for long term storage. Stearic acid microspheres encapsulate 2,4-D or DCMU (Diuron) at a weight-to-weight ratio of approximately 15:I. In addition, the melting point of lipid microspheres is lowered to 38-40° C. for the controlled release of these compounds from microspheres. The melting temperature range varies from 8 to 10° C.
# sweet taste = conditions: cited from earlier work
Structure (SMILES),degradation of components by IR spectra [1],other results
"O=[N+]([O-])c1ccc(O)c([N+](=O)[O-])c1 [2,4-dinitrophenol]",–,degradation by IR data ([1]; after encapsulation within stearic acid microspheres): not degraded
OC[C@H]1O[C@H](O[C@]2(CCl)O[C@H](CCl)[C@@H](O)[C@@H]2O)[C@H](O)[C@@H](O)[C@H]1Cl [sucralose],no components were graded,sweetness compared with sucrose (sweet taste): approximately 600 times
"CN(C)C(=O)Nc1ccc(Cl)c(Cl)c1 [DCMU, diuron]",–,degradation by IR data [1]: undegraded
"CCCc1cc(=O)[nH]c(=S)[nH]1 [PROP, n-propylthiouracil]",no components were graded,–
"CC(=O)OC[C@H]1O[C@@](COC(C)=O)(O[C@H]2O[C@H](COC(C)=O)[C@@H](OC(C)=O)[C@H](OC(C)=O)[C@H]2OC(C)=O)[C@@H](OC(C)=O)[C@@H]1OC(C)=O [SOA, sucrose octaacetate]",no components were graded,–
"C=C[C@H]1C[N@@]2CC[C@H]1C[C@H]2[C@H](O)c1ccnc2ccc(OC)cc12 [quinine, quinine HCl]",no components were graded,–
